US12371428B2 (Exelixis, Inc., priority 2019, dated 2025)

Legend:
Assay type in all cases: cell-based
[1] = target: Met (phospho-Met, HGF-stimulated PC-3 prostate cancer cells) (Homo sapiens (Human), UniProt P08581); assay: Met autophosphorylation ELISA in PC-3 cells (Example F); conditions: cellular activity; Met autophosphorylation ELISA in PC-3 cells; read-out: c-Met IC50
Outline: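 Sandwich ELISA for phospho-Met (panTyr) in PC-3 lysates. Cells starved 3 h serum-free, compound 1 h (8-pt curve, 0.3% DMSO), HGF 100 ng/mL 10 min. 100% = HGF + DMSO; 0% = HGF + reference inhibitor. IC50 by 4-parameter fit.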

[2] = target: AXL (phospho-AXL, Gas6-stimulated A-172 glioblastoma cells) (Homo sapiens (Human), UniProt P30530); assay: AXL autophosphorylation ELISA in A-172 cells (Example E); conditions: cellular activity; AXL autophosphorylation ELISA in A-172 cells; read-out: Axl IC50
Outline: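 Phospho-AXL was measured by ELISA in lysates of Gas6-stimulated A-172 cells, starved 24 h in serum-free medium and exposed 1 h to an 8-point compound dilution at 0.3% DMSO.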

[3] = target: KDR (phospho-KDR, VEGF165-stimulated HUVEC cells) (Homo sapiens (Human), UniProt P35968); assay: KDR autophosphorylation ELISA in HUVEC cells (Example G); conditions: cellular activity; KDR autophosphorylation ELISA in HUVEC cells
Outline: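 Read-out: phospho-KDR in cell lysates by DuoSet IC ELISA, normalised between VEGF-stimulated DMSO wells (100%) and unstimulated wells (0%). Human endothelial cells were starved overnight in serum-free medium, exposed to compound for 1 h, and then pulsed with 100 ng/mL VEGF165 for 5 min.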

[4] = target: Mer (phospho-Mer, MERTK-transfected 293A cells) (Homo sapiens (Human), UniProt Q12866); assay: Mer autophosphorylation ELISA in transient transfected 293A cells (Example H); conditions: cellular activity; Mer autophosphorylation ELISA in transient transfected 293A cells
Outline: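 MERTK-transfected 293A; 8-pt dose, 1 h, serum-free, 0.3% DMSO. Cold lysis with orthovanadate and protease/phosphatase inhibitors. Phospho-Mer by DuoSet IC ELISA vs phospho-Mer standard. IC50: 4-PL fit; DMSO = 100%, reference inhibitor = 0%.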

Chain of Mer (phospho-Mer, MERTK-transfected 293A cells) (Q12866 21-999): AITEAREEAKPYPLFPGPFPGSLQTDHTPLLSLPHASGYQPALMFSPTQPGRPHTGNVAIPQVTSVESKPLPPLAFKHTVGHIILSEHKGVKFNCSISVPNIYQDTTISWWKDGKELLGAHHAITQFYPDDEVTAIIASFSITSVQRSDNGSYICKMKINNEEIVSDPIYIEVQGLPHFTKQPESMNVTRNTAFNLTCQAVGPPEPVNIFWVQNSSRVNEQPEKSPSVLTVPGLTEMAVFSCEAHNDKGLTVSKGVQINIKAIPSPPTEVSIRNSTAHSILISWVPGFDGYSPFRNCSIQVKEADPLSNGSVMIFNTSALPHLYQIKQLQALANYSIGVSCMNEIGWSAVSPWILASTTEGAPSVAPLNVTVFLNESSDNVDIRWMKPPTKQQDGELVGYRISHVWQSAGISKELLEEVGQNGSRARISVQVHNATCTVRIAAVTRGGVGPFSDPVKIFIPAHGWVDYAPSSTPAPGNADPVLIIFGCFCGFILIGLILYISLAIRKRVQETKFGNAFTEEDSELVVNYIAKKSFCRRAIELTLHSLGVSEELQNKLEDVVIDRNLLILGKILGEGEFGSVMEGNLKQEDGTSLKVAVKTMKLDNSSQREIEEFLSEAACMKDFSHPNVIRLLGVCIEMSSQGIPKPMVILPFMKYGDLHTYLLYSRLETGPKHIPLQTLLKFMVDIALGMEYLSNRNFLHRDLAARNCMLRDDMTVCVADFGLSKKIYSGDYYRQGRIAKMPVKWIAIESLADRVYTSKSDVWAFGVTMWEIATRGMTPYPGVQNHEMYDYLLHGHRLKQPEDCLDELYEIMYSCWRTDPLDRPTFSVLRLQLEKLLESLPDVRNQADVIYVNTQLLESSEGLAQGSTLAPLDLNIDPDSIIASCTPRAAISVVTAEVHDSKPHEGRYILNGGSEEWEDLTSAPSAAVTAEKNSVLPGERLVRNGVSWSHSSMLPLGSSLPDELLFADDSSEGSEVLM
Chain of KDR (phospho-KDR, VEGF165-stimulated HUVEC cells) (P35968 20-1356): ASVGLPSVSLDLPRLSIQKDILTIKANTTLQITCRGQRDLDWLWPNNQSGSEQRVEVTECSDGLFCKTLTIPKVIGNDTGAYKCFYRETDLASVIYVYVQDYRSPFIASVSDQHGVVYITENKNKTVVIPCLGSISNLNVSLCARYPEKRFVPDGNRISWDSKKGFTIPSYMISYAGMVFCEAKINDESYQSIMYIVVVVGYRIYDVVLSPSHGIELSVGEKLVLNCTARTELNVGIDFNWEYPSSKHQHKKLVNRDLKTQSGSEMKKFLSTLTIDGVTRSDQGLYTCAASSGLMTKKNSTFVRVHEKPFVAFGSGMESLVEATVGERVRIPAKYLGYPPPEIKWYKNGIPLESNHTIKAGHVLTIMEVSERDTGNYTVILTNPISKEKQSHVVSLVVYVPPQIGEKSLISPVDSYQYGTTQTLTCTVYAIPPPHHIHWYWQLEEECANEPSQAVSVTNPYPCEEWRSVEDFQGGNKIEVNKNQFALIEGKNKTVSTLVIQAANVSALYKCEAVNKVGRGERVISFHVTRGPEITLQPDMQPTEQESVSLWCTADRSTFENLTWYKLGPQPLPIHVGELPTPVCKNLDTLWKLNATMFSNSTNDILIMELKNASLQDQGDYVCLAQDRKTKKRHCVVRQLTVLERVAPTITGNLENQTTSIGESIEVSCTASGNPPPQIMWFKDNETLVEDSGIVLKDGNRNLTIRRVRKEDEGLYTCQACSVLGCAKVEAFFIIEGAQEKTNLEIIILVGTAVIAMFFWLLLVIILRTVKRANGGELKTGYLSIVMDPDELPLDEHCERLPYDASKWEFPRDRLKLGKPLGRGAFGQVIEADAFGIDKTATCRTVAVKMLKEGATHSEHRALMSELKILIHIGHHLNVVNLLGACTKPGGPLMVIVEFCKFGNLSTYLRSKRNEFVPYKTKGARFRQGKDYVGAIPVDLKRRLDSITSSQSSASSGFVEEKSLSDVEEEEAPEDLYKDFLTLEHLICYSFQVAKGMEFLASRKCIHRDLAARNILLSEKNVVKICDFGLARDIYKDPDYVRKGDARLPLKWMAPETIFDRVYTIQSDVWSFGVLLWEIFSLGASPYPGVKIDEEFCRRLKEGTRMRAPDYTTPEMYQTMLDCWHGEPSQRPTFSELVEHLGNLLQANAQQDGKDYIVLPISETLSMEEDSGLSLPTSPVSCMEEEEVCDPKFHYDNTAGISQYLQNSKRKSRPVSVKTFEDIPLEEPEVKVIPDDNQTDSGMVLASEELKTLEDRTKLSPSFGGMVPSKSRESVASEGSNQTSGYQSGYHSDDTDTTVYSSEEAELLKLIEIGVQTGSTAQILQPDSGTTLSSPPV
Chain of AXL (phospho-AXL, Gas6-stimulated A-172 glioblastoma cells) (P30530 26-894): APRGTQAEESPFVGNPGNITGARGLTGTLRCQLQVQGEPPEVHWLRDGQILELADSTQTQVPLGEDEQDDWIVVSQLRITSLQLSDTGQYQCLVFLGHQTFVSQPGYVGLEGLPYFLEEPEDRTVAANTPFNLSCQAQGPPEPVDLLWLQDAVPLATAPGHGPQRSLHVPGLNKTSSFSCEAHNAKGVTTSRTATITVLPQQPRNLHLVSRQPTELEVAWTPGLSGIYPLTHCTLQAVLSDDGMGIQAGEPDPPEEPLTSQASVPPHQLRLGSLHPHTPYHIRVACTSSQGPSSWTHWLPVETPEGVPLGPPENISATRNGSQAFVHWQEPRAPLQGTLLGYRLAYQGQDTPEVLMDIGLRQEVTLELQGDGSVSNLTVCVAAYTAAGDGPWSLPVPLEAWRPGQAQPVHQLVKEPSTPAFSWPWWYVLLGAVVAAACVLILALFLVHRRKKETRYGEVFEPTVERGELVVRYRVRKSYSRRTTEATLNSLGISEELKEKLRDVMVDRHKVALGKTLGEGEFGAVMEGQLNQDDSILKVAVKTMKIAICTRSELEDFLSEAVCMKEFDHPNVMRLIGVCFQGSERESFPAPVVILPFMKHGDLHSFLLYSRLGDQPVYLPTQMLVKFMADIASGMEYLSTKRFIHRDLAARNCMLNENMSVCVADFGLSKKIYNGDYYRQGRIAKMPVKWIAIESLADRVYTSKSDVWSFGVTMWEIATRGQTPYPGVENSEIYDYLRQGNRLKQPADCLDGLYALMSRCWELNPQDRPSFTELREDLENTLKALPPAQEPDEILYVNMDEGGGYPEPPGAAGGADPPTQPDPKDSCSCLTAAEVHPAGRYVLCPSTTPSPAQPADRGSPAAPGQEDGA
Chain of Met (phospho-Met, HGF-stimulated PC-3 prostate cancer cells) (P08581 25-1390): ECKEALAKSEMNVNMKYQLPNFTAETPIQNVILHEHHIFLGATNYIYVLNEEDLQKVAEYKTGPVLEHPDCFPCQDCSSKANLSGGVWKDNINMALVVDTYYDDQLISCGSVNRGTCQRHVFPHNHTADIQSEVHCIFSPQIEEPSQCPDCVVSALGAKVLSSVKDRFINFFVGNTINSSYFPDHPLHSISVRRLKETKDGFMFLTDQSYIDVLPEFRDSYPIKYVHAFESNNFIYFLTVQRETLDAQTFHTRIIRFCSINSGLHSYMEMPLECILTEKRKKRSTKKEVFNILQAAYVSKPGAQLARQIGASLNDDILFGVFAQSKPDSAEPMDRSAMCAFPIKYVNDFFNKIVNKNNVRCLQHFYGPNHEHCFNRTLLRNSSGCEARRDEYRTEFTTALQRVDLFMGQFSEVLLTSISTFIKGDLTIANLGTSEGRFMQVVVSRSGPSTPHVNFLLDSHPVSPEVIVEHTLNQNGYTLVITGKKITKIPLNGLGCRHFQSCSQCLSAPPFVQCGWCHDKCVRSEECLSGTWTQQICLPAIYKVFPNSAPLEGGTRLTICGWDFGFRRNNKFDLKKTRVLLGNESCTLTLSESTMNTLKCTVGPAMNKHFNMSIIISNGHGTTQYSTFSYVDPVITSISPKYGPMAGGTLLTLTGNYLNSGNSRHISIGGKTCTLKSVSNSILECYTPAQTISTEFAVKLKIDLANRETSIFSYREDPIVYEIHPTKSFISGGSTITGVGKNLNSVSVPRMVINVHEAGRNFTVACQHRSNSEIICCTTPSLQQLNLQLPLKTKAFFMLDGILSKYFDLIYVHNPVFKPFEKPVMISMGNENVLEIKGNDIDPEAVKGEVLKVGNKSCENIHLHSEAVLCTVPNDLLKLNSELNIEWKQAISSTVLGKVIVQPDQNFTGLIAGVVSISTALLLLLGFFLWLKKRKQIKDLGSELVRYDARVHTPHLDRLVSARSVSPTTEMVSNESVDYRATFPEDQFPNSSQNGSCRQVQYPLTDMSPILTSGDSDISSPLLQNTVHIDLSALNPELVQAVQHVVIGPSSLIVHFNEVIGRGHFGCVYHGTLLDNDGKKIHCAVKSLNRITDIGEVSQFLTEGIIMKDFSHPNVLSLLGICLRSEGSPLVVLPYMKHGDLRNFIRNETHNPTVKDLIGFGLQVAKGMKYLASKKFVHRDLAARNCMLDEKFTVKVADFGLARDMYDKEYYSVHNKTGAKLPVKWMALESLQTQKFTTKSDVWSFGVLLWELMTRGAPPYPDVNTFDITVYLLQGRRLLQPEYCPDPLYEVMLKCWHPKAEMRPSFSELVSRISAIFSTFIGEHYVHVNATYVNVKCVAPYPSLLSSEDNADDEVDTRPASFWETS

IC50 [1]	IC50 [2]	IC50 [3]	IC50 [4]	SMILES
< 0.1 µM	< 0.1 µM	> 0.3 µM	< 0.1 µM	COc1cc2nccc(Oc3ccc(NC(=O)c4c(Cl)n(C)c(C)c(-c5ccc(F)cc5)c4=O)cc3F)c2nc1OC [Compound 647, 2-chloro-N-[4-[(6,7-dimethoxy-1,5-naphthyridin-4-yl)oxy]-3-fluorophenyl]-5-(4-fluorophenyl)-1,6-dimethyl-4-oxopyridine-3-carboxamide]
< 0.1 µM	< 0.1 µM	0.1 to 0.3 µM	< 0.1 µM	COc1cc2nccc(Oc3ccc(NC(=O)c4c(OC)n(C)c(C)c(-c5ccc(F)cc5)c4=O)cc3F)c2nc1OC [Compound 648, N-[4-[(6,7-dimethoxy-1,5-naphthyridin-4-yl)oxy]-3-fluorophenyl]-5-(4-fluorophenyl)-2-methoxy-1,6-dimethyl-4-oxopyridine-3-carboxamide]
< 0.1 µM	0.1 to 0.3 µM	> 0.3 µM	< 0.1 µM	CNc1c(C(=O)Nc2ccc(Oc3ccnc4cc(OC)c(OC)nc34)c(F)c2)c(=O)c(-c2ccc(F)cc2)c(C)n1C [Compound 649, N-[4-[(6,7-dimethoxy-1,5-naphthyridin-4-yl)oxy]-3-fluorophenyl]-5-(4-fluorophenyl)-1,6-dimethyl-2-(methylamino)-4-oxopyridine-3-carboxamide]
< 0.1 µM	< 0.1 µM	< 0.1 µM	< 0.1 µM	COCCOc1nc2c(Oc3ccc(NC(=O)c4ccc(C)n(-c5ccc(F)cc5)c4=O)cc3F)ncnc2cc1OC [Compound 650, N-[3-fluoro-4-[7-methoxy-6-(2-methoxyethoxy)pyrido[3,2-d]pyrimidin-4-yl]oxyphenyl]-1-(4-fluorophenyl)-6-methyl-2-oxopyridine-3-carboxamide]
< 0.1 µM	< 0.1 µM	< 0.1 µM	< 0.1 µM	COc1cnc2c(Oc3ccc(NC(=O)c4c(CO)nc(C)c(-c5ccc(F)cc5)c4O)cc3F)ccnc2c1 [Compound 651, N-[3-fluoro-4-[(7-methoxy-1,5-naphthyridin-4-yl)oxy]phenyl]-5-(4-fluorophenyl)-4-hydroxy-2-(hydroxymethyl)-6-methylpyridine-3-carboxamide]
< 0.1 µM	< 0.1 µM	< 0.1 µM	< 0.1 µM	COc1cc2nccc(Oc3ccc(NC(=O)c4c(CO)nc(C)c(-c5ccc(F)cc5)c4O)cc3F)c2nc1OC [Compound 652, N-[4-[(6,7-dimethoxy-1,5-naphthyridin-4-yl)oxy]-3-fluorophenyl]-5-(4-fluorophenyl)-4-hydroxy-2-(hydroxymethyl)-6-methylpyridine-3-carboxamide]
< 0.1 µM	< 0.1 µM	< 0.1 µM	< 0.1 µM	COc1cc2nccc(Oc3ccc(NC(=O)c4c(C)[nH]nc(-c5ccc(F)cc5)c4=O)cc3F)c2nc1OC [Compound 653, N-[4-[(6,7-dimethoxy-1,5-naphthyridin-4-yl)oxy]-3-fluorophenyl]-3-(4-fluorophenyl)-6-methyl-4-oxo-1H-pyridazine-5-carboxamide]
< 0.1 µM	< 0.1 µM	< 0.1 µM	< 0.1 µM	COc1cc2nccc(Oc3ccc(NC(=O)c4c(C)c(C(C)=O)cn(-c5ccc(F)cc5)c4=O)cc3F)c2nc1OC [Compound 654, 5-acetyl-N-[4-[(6,7-dimethoxy-1,5-naphthyridin-4-yl)oxy]-3-fluorophenyl]-1-(4-fluorophenyl)-4-methyl-2-oxopyridine-3-carboxamide]
< 0.1 µM	< 0.1 µM	< 0.1 µM	< 0.1 µM	COc1cc2nccc(Oc3ccc(NC(=O)c4c(C)n(C)nc(-c5ccc(F)cc5)c4=O)cc3F)c2nc1OC [Compound 655, N-[4-[(6,7-dimethoxy-1,5-naphthyridin-4-yl)oxy]-3-fluorophenyl]-6-(4-fluorophenyl)-2,3-dimethyl-5-oxopyridazine-4-carboxamide]
< 0.1 µM	< 0.1 µM	> 0.3 µM	< 0.1 µM	COc1cnc2c(Oc3ccc(NC(=O)c4cc(C(C)=O)c(C)n(-c5ccc(F)cc5)c4=O)cc3F)ccnc2c1 [Compound 656, 5-acetyl-N-[3-fluoro-4-[(7-methoxy-1,5-naphthyridin-4-yl)oxy]phenyl]-1-(4-fluorophenyl)-6-methyl-2-oxopyridine-3-carboxamide]
< 0.1 µM	< 0.1 µM	< 0.1 µM	< 0.1 µM	COc1cc2nccc(Oc3ccc(NC(=O)c4c(C)nnc(-c5ccc(F)cc5)c4OC)cc3F)c2nc1OC [Compound 657, N-[4-[(6,7-dimethoxy-1,5-naphthyridin-4-yl)oxy]-3-fluorophenyl]-6-(4-fluorophenyl)-5-methoxy-3-methylpyridazine-4-carboxamide]
< 0.1 µM	< 0.1 µM	> 0.3 µM	< 0.1 µM	COc1cnc2c(Oc3ccc(NC(=O)c4cnc(C5CC5)c(-c5ccc(F)cc5)c4O)cc3F)ccnc2c1 [Compound 658, 6-cyclopropyl-N-[3-fluoro-4-[(7-methoxy-1,5-naphthyridin-4-yl)oxy]phenyl]-5-(4-fluorophenyl)-4-hydroxypyridine-3-carboxamide]
< 0.1 µM	< 0.1 µM	> 0.3 µM	< 0.1 µM	COc1cc2nccc(Oc3ccc(NC(=O)c4cc(C(C)=O)c(C)n(-c5ccc(F)cc5)c4=O)cc3)c2nc1OC [Compound 659, 5-acetyl-N-[4-[(6,7-dimethoxy-1,5-naphthyridin-4-yl)oxy]phenyl]-1-(4-fluorophenyl)-6-methyl-2-oxopyridine-3-carboxamide]
< 0.1 µM	< 0.1 µM	0.1 to 0.3 µM	< 0.1 µM	COc1cc2nccc(Oc3ccc(NC(=O)c4cn5c(c(-c6ccc(F)cc6)c4=O)COCC5)cc3)c2nc1OC [Compound 660, N-[4-[(6,7-dimethoxy-1,5-naphthyridin-4-yl)oxy]phenyl]-9-(4-fluorophenyl)-8-oxo-3,4-dihydro-1H-pyrido[2,1-c][1,4]oxazine-7-carboxamide]
< 0.1 µM	< 0.1 µM	> 0.3 µM	< 0.1 µM	COc1cnc2c(Oc3ccc(NC(=O)c4cn5c(c(-c6ccc(F)cc6)c4=O)COCC5)cc3F)ccnc2c1 [Compound 661, N-[3-fluoro-4-[(7-methoxy-1,5-naphthyridin-4-yl)oxy]phenyl]-9-(4-fluorophenyl)-8-oxo-3,4-dihydro-1H-pyrido[2,1-c][1,4]oxazine-7-carboxamide]
< 0.1 µM	< 0.1 µM	0.1 to 0.3 µM	< 0.1 µM	COc1cc2nccc(Oc3ccc(NC(=O)c4cnc(C5CC5)c(-c5ccc(F)cc5)c4O)cc3F)c2nc1OC [Compound 662, 6-cyclopropyl-N-[4-[(6,7-dimethoxy-1,5-naphthyridin-4-yl)oxy]-3-fluorophenyl]-5-(4-fluorophenyl)-4-hydroxypyridine-3-carboxamide]
< 0.1 µM	< 0.1 µM	> 0.3 µM	< 0.1 µM	COCc1nc(C)c(-c2ccc(F)cc2)c(OC)c1C(=O)Nc1ccc(Oc2ccnc3cc(OC)c(OC)nc23)c(F)c1 [Compound 663, N-[4-[(6,7-dimethoxy-1,5-naphthyridin-4-yl)oxy]-3-fluorophenyl]-5-(4-fluorophenyl)-4-methoxy-2-(methoxymethyl)-6-methylpyridine-3-carboxamide]
< 0.1 µM	< 0.1 µM	< 0.1 µM	< 0.1 µM	COc1cc2nccc(Oc3ccc(NC(=O)c4c(C)c(F)cn(-c5ccc(F)cc5)c4=O)cc3F)c2nc1OC [Compound 664, N-[4-[(6,7-dimethoxy-1,5-naphthyridin-4-yl)oxy]-3-fluorophenyl]-5-fluoro-1-(4-fluorophenyl)-4-methyl-2-oxopyridine-3-carboxamide]
< 0.1 µM	< 0.1 µM	0.1 to 0.3 µM	< 0.1 µM	COc1cc2nccc(Oc3ccc(NC(=O)c4c(C)c(F)cn(-c5ccc(F)cc5)c4=O)cc3)c2nc1OC [Compound 665, N-[4-[(6,7-dimethoxy-1,5-naphthyridin-4-yl)oxy]phenyl]-5-fluoro-1-(4-fluorophenyl)-4-methyl-2-oxopyridine-3-carboxamide]
< 0.1 µM	< 0.1 µM	0.1 to 0.3 µM	< 0.1 µM	COc1cc2nccc(Oc3ccc(NC(=O)c4c(C)n(CCF)cc(-c5ccc(F)cc5)c4=O)cc3F)c2nc1OC [Compound 666, N-[4-[(6,7-dimethoxy-1,5-naphthyridin-4-yl)oxy]-3-fluorophenyl]-1-(2-fluoroethyl)-5-(4-fluorophenyl)-2-methyl-4-oxopyridine-3-carboxamide]
